Results published in US9663511B2, “Sphingosine 1-phosphate receptor antagonists” (ARROYO BIOSCIENCES, LLC, priority 2012, dated 2017).
Several values for one entry are separate records, joined by “and”; a condition that tells them apart may be missing. Equal values may be shown once. Read-outs that look alike come from different tables or passages of the source. Marks after values point to notes of the source that are not given here.

Assays:
[1] = Microsomal intrinsic clearance; conditions: mouse, microsomes, mouse microsomes, test conc. 1 μM
[2] = Blood concentrations and pharmacokinetics after 1 mg/kg i.v. in mice; type: in vivo, mouse
Method: 1 mg/kg of the compound was injected by IV and blood was withdrawn at the times in table 1. The amount of starting compound was quantified by a standard curve using MS/MS determinations.

[3] = In vitro plasma protein binding; type: in vitro ADME, mouse
S1P2 receptor = S1P2 receptor (Homo sapiens (Human), UniProt O95136); assay: Antagonist assay (FLIPR TETRA, inhibition of reference agonist EC80) on S1P2; type: cell-based; conditions: tested as the citrate salt
Method: (§1) Antagonist percentage inhibition determinations were obtained by assaying sample compounds and referencing the control (EC80) wells for each profiled (GPCR) which evaluated binding to S1P2 and S1P5 receptors. The samples were run using a single addition assay protocol. The protocol design is as follows.
(§2) Unless specified otherwise, the sample compounds were diluted in 100% anhydrous DMSO including all dilutions. The compounds were tested as the citrate salt (1 equivalent per molecule). If the sample compound is provided in a different solvent all master stock dilutions are performed in the specified solvent. All control wells contained identical solvent final concentrations as the sample compound wells.
(§3) The sample compounds were transferred from a master stock solution into a daughter plate that was used in the assay. Each sample compound was diluted into an assay buffer (1×HBSS with 20 mM HEPES, 2.5 mM Probenecid, and 0.4% Free Fatty Acid BSA) at an appropriate concentration to obtain final specified concentrations.
(§4) Using the EC80 values that were determined real-time, stimulated all pre-incubated sample compounds and reference antagonists (if applicable) were compared with the EC80 values of reference agonist. These were read for 180 seconds using the FLIPR^TETRA (This assay added reference agonist to respective wells-then fluorescences measurements were collected to calculate IC50 values). All plates were subjected to appropriate baseline corrections. Once baseline corrections were processed, maximum fluorescence values were exported and data manipulated to calculate percentage activation, percentage inhibition and Z′.

S1P5 receptor = S1P5 receptor (Homo sapiens (Human), UniProt Q9H228); assay: Antagonist assay (FLIPR TETRA, inhibition of reference agonist EC80) on S1P5; type: cell-based; conditions: tested as the citrate salt
Method: as §1, §2, §3, §4

in vitro = conditions: mouse, microsomes, NADPH-dependent Clint (microsomal intrinsic clearance)

S1P2 receptor, sequence (O95136 whole entry): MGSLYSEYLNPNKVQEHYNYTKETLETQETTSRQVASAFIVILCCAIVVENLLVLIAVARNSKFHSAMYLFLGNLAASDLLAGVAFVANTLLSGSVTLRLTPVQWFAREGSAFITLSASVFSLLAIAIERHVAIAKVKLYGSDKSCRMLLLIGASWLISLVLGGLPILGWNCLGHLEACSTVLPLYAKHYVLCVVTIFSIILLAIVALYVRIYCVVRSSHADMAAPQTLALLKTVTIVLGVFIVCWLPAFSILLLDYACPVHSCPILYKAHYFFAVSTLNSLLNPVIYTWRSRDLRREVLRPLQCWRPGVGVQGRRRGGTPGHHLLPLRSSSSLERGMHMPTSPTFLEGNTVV
S1P5 receptor, sequence (Q9H228 whole entry): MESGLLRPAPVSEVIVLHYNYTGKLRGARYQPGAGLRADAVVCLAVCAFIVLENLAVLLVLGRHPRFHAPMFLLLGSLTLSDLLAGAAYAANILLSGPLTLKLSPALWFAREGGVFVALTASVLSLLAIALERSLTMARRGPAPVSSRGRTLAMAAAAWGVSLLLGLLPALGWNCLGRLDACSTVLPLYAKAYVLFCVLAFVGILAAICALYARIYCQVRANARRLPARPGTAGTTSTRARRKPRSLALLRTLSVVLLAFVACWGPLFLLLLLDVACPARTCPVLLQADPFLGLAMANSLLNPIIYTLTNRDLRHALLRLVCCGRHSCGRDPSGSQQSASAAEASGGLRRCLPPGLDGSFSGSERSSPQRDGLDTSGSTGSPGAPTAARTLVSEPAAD

With Cc1nn(C)c2nc(NNC(=O)Nc3cc(Cl)nc(Cl)c3)cc(C(C)C)c12 [JTE013, N-(1H-4-isopropyl-1,3-dimethylpyrazolo[3,4-b]pyridine-6-yl)amino-N′-(2,6-dichloropyridine-4-yl) urea] the microsomal CLint at 1 μM ([1]; NADPH-dependent Clint (microsomal intrinsic clearance)) was 770 µL/min/mg, the half-life at 1 μM ([1]; NADPH-dependent T1/2 (half-life)) was 3 min and the microsomal CLint at 1 μM ([1]; NADPH-free Clint (microsomal intrinsic clearance)) was 22 µL/min/mg. The half-life at 1 μM ([1]; NADPH-free T1/2 (half-life)) was 105 min, the AUC0-inf ([2]; mouse blood, individual mice) was 88.2 ng·h/mL and 122 ng·h/mL and the “AUC0-inf Extrapolated” value ([2]; mouse blood, individual mice) was 6.50% and 2.89% and 12.1%. For the same compound, the AUC0-tlast ([2]; mouse blood, individual mice) was 85.6 ng·h/mL and 108 ng·h/mL, the AUMC0-inf ([2]; mouse blood, individual mice) was 153 h^2*ng/mL and 71.2 h^2*ng/mL and 652 h^2*ng/mL and the “AUMC0-inf Extrapolated” value ([2]; mouse blood, individual mice) was 68.6% and 39.9% and 88.0%. For the same compound, the AUMC0-tlast ([2]; mouse blood, individual mice) was 48.1 h^2*ng/mL and 42.8 h^2*ng/mL and 78.0 h^2*ng/mL, the C0 ([2]; mouse blood, individual mice) was 397 ng/mL and 536 ng/mL and the CL ([2]; mouse blood, individual mice) was 11.3 L/h/kg and 8.18 L/h/kg. The MRT0-inf ([2]; mouse blood, individual mice) was 1.40 h and 0.807 h and 5.33 h, the MRT0-tlast ([2]; mouse blood, individual mice) was 30 min and 43.5 min and the Terminal half-life ([2]; mouse blood, individual mice) was 6.11 h and 3.56 h and 18.7 h. The Vss ([2]; mouse blood, individual mice) was 12.8 L/kg and 9.16 L/kg and 43.6 L/kg, the “AUC0-inf Extrapolated, Mean S.D.” value ([2]; mouse blood, mean) was 7.15 ± 4.61% and the “AUMC0-inf Extrapolated, Mean S.D.” value ([2]; mouse blood, mean) was 65.5 ± 24.2%. For the same compound, the “AUMC0-inf, Mean S.D.” value ([2]; mouse blood, mean) was 292 ± 314 h^2*ng/mL, the “AUMC0-tlast, Mean S.D.” value ([2]; mouse blood, mean) was 56.3 ± 19.0 h^2*ng/mL and the “C0, Mean S.D.” value ([2]; mouse blood, mean) was 462 ± 70.1 ng/mL. For the same compound, the “Blood Concentrations” value ([2]; mouse, 5 min, individual mice, LLOQ = 1 ng/mL) was 231 ng/mL and 302 ng/mL, the “Blood Concentrations” value ([2]; mouse, 0.25 h, individual mice, LLOQ = 1 ng/mL) was 78.3 ng/mL and 95.8 ng/mL and the “Blood Concentrations” value ([2]; mouse, 0.5 h, individual mice, LLOQ = 1 ng/mL) was 33.8 ng/mL and 40.4 ng/mL. The “Blood Concentrations” value ([2]; mouse, 1 h, individual mice, LLOQ = 1 ng/mL) was 14.4 ng/mL and 13.4 ng/mL, the “Blood Concentrations” value ([2]; mouse, 2 h, individual mice, LLOQ = 1 ng/mL) was 3.16 ng/mL and 3.12 ng/mL and the “Blood Concentrations” value ([2]; mouse, 4 h, individual mice, LLOQ = 1 ng/mL) was 0.732^c ng/mL and 0.771^c ng/mL. For the same compound, the “Blood Concentrations” value ([2]; mouse, 6 h, individual mice, LLOQ = 1 ng/mL) was 0.496^c ng/mL and 0.643^c ng/mL, the “Blood Concentrations” value ([2]; mouse, 12 h, individual mice, LLOQ = 1 ng/mL) was “BLQ” and the “pharmacokinetics / blood levels following intravenous injection in mice (in words)” value ([2]; mouse, comparison between compounds) was “better than compound 2”. For the same compound, the AUC0-inf ([2]; mouse, in vivo, iv, 1 mg/kg, mouse blood, individual mice, read-out: AUC0-inf) was 109 ng·h/mL, the AUC(0-t) ([2]; mouse, in vivo, iv, 1 mg/kg, mouse blood, individual mice, read-out: AUC0-tlast) was 102 ng·h/mL and the C0 ([2]; mouse, in vivo, iv, 1 mg/kg, mouse blood, individual mice, read-out: C0) was 453 ng/mL. It also gave a clearance ([2]; mouse, in vivo, iv, 1 mg/kg, mouse blood, individual mice, read-out: CL (converted)) of 153 mL/min/kg, an MRT last ([2]; mouse, in vivo, iv, 1 mg/kg, mouse blood, individual mice, read-out: MRT0-tlast) of 28.3 min and an AUC0-inf ([2]; mouse, in vivo, iv, 1 mg/kg, mouse blood, mean, read-out: AUC0-inf, Mean S.D.) of 107 ± 17.2 ng·h/mL. It also gave an AUC(0-t) ([2]; mouse, in vivo, iv, 1 mg/kg, mouse blood, mean, read-out: AUC0-tlast, Mean S.D.) of 98.4 ± 11.4 ng·h/mL, a clearance ([2]; mouse, in vivo, iv, 1 mg/kg, mouse blood, mean, read-out: CL, Mean S.D. (converted)) of 159 mL/min/kg and an MRT inf ([2]; mouse, in vivo, iv, 1 mg/kg, mouse blood, mean, read-out: MRT0-inf, Mean S.D.) of 2.51 ± 2.46 h. It also gave an MRT last ([2]; mouse, in vivo, iv, 1 mg/kg, mouse blood, mean, read-out: MRT0-tlast, Mean S.D.) of 33.9 ± 8.34 min, a half-life ([2]; mouse, in vivo, iv, 1 mg/kg, mouse blood, mean, read-out: Terminal half-life, Mean S.D. (converted)) of 567 ± 485 min and a Vd ([2]; mouse, in vivo, iv, 1 mg/kg, mouse blood, mean, read-out: Vss, Mean S.D.) of 21.9 ± 18.9 L/kg. It also gave a concentration at 5 min ([2]; mouse, in vivo, iv, 1 mg/kg, mouse, 5 min, individual mice, LLOQ = 1 ng/mL, read-out: Blood Concentrations) of 282 ng/mL, a concentration at 5 min ([2]; mouse, in vivo, iv, 1 mg/kg, mouse, 5 min, mean of 3 mice, read-out: Blood Concentrations, Mean S.D.) of 272 ± 36.6 ng/mL and a concentration at 0.25 h ([2]; mouse, in vivo, iv, 1 mg/kg, mouse, 0.25 h, individual mice, LLOQ = 1 ng/mL, read-out: Blood Concentrations) of 109 ng/mL. It also gave a concentration at 0.25 h ([2]; mouse, in vivo, iv, 1 mg/kg, mouse, 0.25 h, mean of 3 mice, read-out: Blood Concentrations, Mean S.D.) of 94.4 ± 15.4 ng/mL, a concentration at 0.5 h ([2]; mouse, in vivo, iv, 1 mg/kg, mouse, 0.5 h, individual mice, LLOQ = 1 ng/mL, read-out: Blood Concentrations) of 44.4 ng/mL and a concentration at 0.5 h ([2]; mouse, in vivo, iv, 1 mg/kg, mouse, 0.5 h, mean of 3 mice, read-out: Blood Concentrations, Mean S.D.) of 39.5 ± 5.35 ng/mL. It also gave a concentration at 1 h ([2]; mouse, in vivo, iv, 1 mg/kg, mouse, 1 h, individual mice, LLOQ = 1 ng/mL, read-out: Blood Concentrations) of 11.8 ng/mL, a concentration at 1 h ([2]; mouse, in vivo, iv, 1 mg/kg, mouse, 1 h, mean of 3 mice, read-out: Blood Concentrations, Mean S.D.) of 13.2 ± 1.31 ng/mL and a concentration at 2 h ([2]; mouse, in vivo, iv, 1 mg/kg, mouse, 2 h, individual mice, LLOQ = 1 ng/mL, read-out: Blood Concentrations) of 2.72 ng/mL. The concentration at 2 h ([2]; mouse, in vivo, iv, 1 mg/kg, mouse, 2 h, mean of 3 mice, read-out: Blood Concentrations, Mean S.D.) was 3 ± 0.243 ng/mL, the concentration at 4 h ([2]; mouse, in vivo, iv, 1 mg/kg, mouse, 4 h, individual mice, LLOQ = 1 ng/mL, read-out: Blood Concentrations) was 1.01 ng/mL and the concentration at 4 h ([2]; mouse, in vivo, iv, 1 mg/kg, mouse, 4 h, mean (n = 2 for Cmpd-1), read-out: Blood Concentrations, Mean S.D.) was 0.838 ± 0.151 ng/mL. The concentration at 6 h ([2]; mouse, in vivo, iv, 1 mg/kg, mouse, 6 h, individual mice, LLOQ = 1 ng/mL, read-out: Blood Concentrations) was 0.805 ng/mL, the concentration at 6 h ([2]; mouse, in vivo, iv, 1 mg/kg, mouse, 6 h, mean (n = 2 for Cmpd-1), read-out: Blood Concentrations, Mean S.D.) was 0.648 ± 0.155 ng/mL and the concentration at 12 h ([2]; mouse, in vivo, iv, 1 mg/kg, mouse, 12 h, individual mice, LLOQ = 1 ng/mL, read-out: Blood Concentrations) was 0.547 ng/mL. For the same compound, the “mean fraction bound (%)” value ([3]; mouse plasma, test concentration 5 nM) was 99.7%, the IC50 (S1P2 receptor) was 11 nM and the IC50 (S1P5 receptor) was 1.3 nM.
In the case of CC(=O)CC(c1ccccc1)c1c(O)c2ccccc2oc1=O (centres unmarked) [Warfarin, reference compound], the microsomal CLint at 1 μM (in vitro) is reported as 15 µL/min/mg and the “mean fraction bound (%)” value ([3]; mouse, 5 nM) is reported as 92.1%.
